Columns and labels:
Assay type in all cases: functional
Settings in all cases: read-out: GI
[1] = system: Brassica rapa subsp. oleifera; assay: Herbicidal activity against Brassica rapa subsp. oleifera assessed as inhibition of root growth at 1000 ug/ml after 65 hr by rape cup test
Echinochloa crus-galli [2] = assay: Herbicidal activity against Echinochloa crus-galli (barnyard grass) plants assessed as inhibition of seedling growth at 1000 ug/ml after 65 hr by barnyard cup test
[3] = system: Brassica rapa subsp. oleifera; assay: Herbicidal activity against Brassica rapa subsp. oleifera assessed as inhibition of root growth at 100 ug/ml after 65 hr by rape cup test
Echinochloa crus-galli [4] = assay: Herbicidal activity against Echinochloa crus-galli (barnyard grass) plants assessed as inhibition of seedling growth at 100 ug/ml after 65 hr by barnyard cup test

Row | Compound | inhibition of growth at 1000 µg/mL [1] [%] | inhibition of growth at 1000 µg/mL (Echinochloa crus-galli [2]) [%] | inhibition of growth at 100 µg/mL [3] [%] | inhibition of growth at 100 µg/mL (Echinochloa crus-galli [4]) [%]
1 | COc1cc(OC)c2c(c1)O/C(=C\c1cccc(F)c1)C2=O | 82.1 | 43.8 | 57.8 | 14.4
2 | COc1cc(/C=C2\Oc3cc(O)cc(O)c3C2=O)cc(OC)c1OC | 83.8 | 68.7 | 0 | 5.2
3 | Cc1ccc(/C=C2\Oc3cc(O)cc(O)c3C2=O)cc1 | 78.2 | 44.2 | 44.3 | 5
4 | O=C1/C(=C/c2ccc(F)cc2)Oc2cc(O)cc(O)c21 | 42.3 | 20 | 39.1 | 5
5 | CC(C)(C)c1ccc(/C=C2\Oc3cc(O)cc(O)c3C2=O)cc1 | 87.5 | 39.6 | 9.5 | 1.5
6 | COc1ccc(/C=C2\Oc3cc(O)cc(O)c3C2=O)cc1 | 90.8 | 28.8 | 63.7 | 10
7 | O=C1/C(=C/c2ccc(O)cc2)Oc2cc(O)cc(O)c21 | 72.1 | 57.9 | 55.2 | 15
8 | COc1cc(/C=C2\Oc3cc(O)cc(O)c3C2=O)ccc1OCc1ccccc1 | 87.9 | 38.6 | 46.8 | 9.7
9 | COc1cc(/C=C2\Oc3cc(O)cc(O)c3C2=O)cc(OC)c1OCc1ccccc1 | 75.9 | 36.9 | 48.8 | 15.2
10 | COc1cc(OC)c2c(c1)O/C(=C\c1cccc(OC)c1OC)C2=O | 51.4 | 42.6 | 34.7 | 25.5
11 | COc1cc(OC)c2c(c1)O/C(=C\c1ccc(OCc3ccccc3)c(OC)c1)C2=O | 68 | 44.4 | 54 | 8.4
12 | CCOc1cc(OCC)c2c(c1)O/C(=C\c1ccc(OC)cc1)C2=O | 17.7 | 35 | 0 | 10
13 | COc1cc(/C=C2\Oc3cc(OC(=O)c4ccccc4)cc(OC(=O)c4ccccc4)c3C2=O)cc(OC)c1OCc1ccccc1 | 77.1 | 19.6 | 47.6 | 5
14 | COc1ccc(/C=C2\Oc3cc(OC)c(C)c(OC)c3C2=O)cc1OC | 83.8 | 51.8 | 40.1 | 16.8
15 | COc1cc2c(c(OC)c1C)C(=O)/C(=C/c1ccc(F)cc1)O2 | 59 | 15 | 46.6 | 0
16 | COc1cc2c(c(OC)c1C)C(=O)/C(=C/c1ccc(OCc3ccccc3)cc1)O2 | 91.9 | 40.8 | 14.2 | 2.3
17 | COc1ccc(/C=C2\Oc3cc(O)cc(O)c3C2=O)cc1OC | 82.6 | 48.1 | 48 | 12.3
18 | COc1cc(/C=C2\Oc3cc(O)cc(O)c3C2=O)cc(OC)c1O | 0 | 10 | 0 | 5
19 | O=C1/C(=C/c2ccc3c(c2)OCO3)Oc2cc(O)cc(O)c21 | 8.7 | 10 | 0 | 5
